Results: ChEMBL document CHEMBL4033793, “Potent and Selective Inhibitors of Human Sirtuin 5” (J Med Chem, 2018)
Residues, ends and D or L forms follow the SMILES beside them. *: point of attachment. X27 = O=C(O)[C@H](CC(=O)*)SCc1ccc([N+](=O)[O-])cc1; X35 = O=C(O)[C@@H](CC(=O)*)SCc1ccc(C(F)(F)F)cc1; X32 = O=C(O)[C@H](CC(=O)*)SCc1ccc(C(F)(F)F)cc1; X28 = O=C(O)[C@@H](CC(=O)*)Sc1ccc(Cl)c(Cl)c1; X39 = O=C(O)[C@H](CC(=O)*)Sc1cc(Cl)cc(Cl)c1; X23 = O=C(O)[C@@H](CC(=O)*)Sc1cccc2ccccc12; X24 = O=C(O)[C@H](CC(=O)*)SCc1ccc(Cl)cc1Cl; X29 = COc1ccc(S[C@@H](CC(=O)*)C(=O)O)cc1OC; X36 = O=C(O)[C@@H](CC(=O)*)Sc1ccc2ccccc2c1; X41 = O=C(O)[C@@H](CC(=O)*)Sc1cc(Cl)ccc1Cl; X30 = COc1ccc(S[C@H](CC(=O)*)C(=O)O)cc1OC; X31 = O=C(O)[C@H](CC(=O)*)Sc1cccc(Cl)c1Cl; X38 = O=C(O)[C@H](CC(=O)*)Sc1cccc2ccccc12; X43 = O=C(O)[C@H](CC(=O)*)Sc1ccc(Cl)cc1Cl; X33 = Cc1ccc(S[C@@H](CC(=O)*)C(=O)O)cc1C; X26 = O=C(O)[C@@H](CC(=O)*)SCCc1ccccc1; X34 = O=C(O)[C@@H](CC(=O)*)Sc1ccccc1Cl; X37 = O=C(O)[C@H](CC(=O)*)SCCCc1ccccc1; X40 = O=C(O)[C@H](CC(=O)*)SCc1ccccc1; X45 = O=C(O)[C@H](CC(=O)*)SC1CCCCC1; X44 = CC(CC(=O)*)Sc1ccc2ccccc2c1; X42 = O=C(CCSc1ccc2ccccc2c1)*; Bz = O=C(c1ccccc1)*

target: NAD-dependent protein deacylase sirtuin-5, mitochondrial (Homo sapiens, UniProt Q9NXA8); assay: Inhibition of human recombinant N-terminal Strep2-tagged SIRT5 expressed in Escherichia coli BL21 (DE3) using Abz-GVLK(glutaryl)AY(NO2)GV-NH2 as substrate in presence of NAD+ by fluorescence assay
Sequence (Q9NXA8 whole entry): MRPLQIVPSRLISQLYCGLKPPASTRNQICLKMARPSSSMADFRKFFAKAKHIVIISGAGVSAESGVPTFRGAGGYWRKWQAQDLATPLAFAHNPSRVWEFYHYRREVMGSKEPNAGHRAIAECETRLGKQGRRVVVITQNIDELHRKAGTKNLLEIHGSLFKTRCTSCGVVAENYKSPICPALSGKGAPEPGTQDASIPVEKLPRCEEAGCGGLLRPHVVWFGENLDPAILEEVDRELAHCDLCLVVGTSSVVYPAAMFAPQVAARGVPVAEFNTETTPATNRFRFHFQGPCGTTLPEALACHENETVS

IC50 [nM]	SMILES
2200	CC(C)C[C@H](NC(=O)[C@@H](NC(=O)CNC(=O)c1ccccc1)C(C)C)C(=O)N[C@@H](CCCCNC(=O)C[C@@H](Sc1cccc2ccccc12)C(=O)O)C(=O)N[C@@H](CCC(=O)O)C(=O)N[C@@H](Cc1ccc(O)cc1)C(=O)NCC(=O)N[C@H](C(N)=O)C(C)C (Bz-GVLK(X23)EYGV-NH2)
543	CC(C)C[C@H](NC(=O)[C@@H](NC(=O)CNC(=O)c1ccccc1)C(C)C)C(=O)N[C@@H](CCCCNC(=O)C[C@H](SCc1ccc(Cl)cc1Cl)C(=O)O)C(=O)N[C@@H](CCC(=O)O)C(=O)N[C@@H](Cc1ccc(O)cc1)C(=O)NCC(=O)N[C@H](C(N)=O)C(C)C (Bz-GVLK(X24)EYGV-NH2)
592	CC(C)C[C@H](NC(=O)[C@@H](NC(=O)CNC(=O)c1ccccc1)C(C)C)C(=O)N[C@@H](CCCCNC(=O)C[C@@H](SCCc1ccccc1)C(=O)O)C(=O)N[C@@H](CCC(=O)O)C(=O)N[C@@H](Cc1ccc(O)cc1)C(=O)NCC(=O)N[C@H](C(N)=O)C(C)C (Bz-GVLK(X26)EYGV-NH2)
3730	CC(C)C[C@H](NC(=O)[C@@H](NC(=O)CNC(=O)c1ccccc1)C(C)C)C(=O)N[C@@H](CCCCNC(=O)C[C@H](SCc1ccc([N+](=O)[O-])cc1)C(=O)O)C(=O)N[C@@H](CCC(=O)O)C(=O)N[C@@H](Cc1ccc(O)cc1)C(=O)NCC(=O)N[C@H](C(N)=O)C(C)C (Bz-GVLK(X27)EYGV-NH2)
1610	CC(C)C[C@H](NC(=O)[C@@H](NC(=O)CNC(=O)c1ccccc1)C(C)C)C(=O)N[C@@H](CCCCNC(=O)C[C@@H](Sc1ccc(Cl)c(Cl)c1)C(=O)O)C(=O)N[C@@H](CCC(=O)O)C(=O)N[C@@H](Cc1ccc(O)cc1)C(=O)NCC(=O)N[C@H](C(N)=O)C(C)C (Bz-GVLK(X28)EYGV-NH2)
326	COc1ccc(S[C@@H](CC(=O)NCCCC[C@H](NC(=O)[C@H](CC(C)C)NC(=O)[C@@H](NC(=O)CNC(=O)c2ccccc2)C(C)C)C(=O)N[C@@H](CCC(=O)O)C(=O)N[C@@H](Cc2ccc(O)cc2)C(=O)NCC(=O)N[C@H](C(N)=O)C(C)C)C(=O)O)cc1OC (Bz-GVLK(X29)EYGV-NH2)
9080	COc1ccc(S[C@H](CC(=O)NCCCC[C@H](NC(=O)[C@H](CC(C)C)NC(=O)[C@@H](NC(=O)CNC(=O)c2ccccc2)C(C)C)C(=O)N[C@@H](CCC(=O)O)C(=O)N[C@@H](Cc2ccc(O)cc2)C(=O)NCC(=O)N[C@H](C(N)=O)C(C)C)C(=O)O)cc1OC (Bz-GVLK(X30)EYGV-NH2)
715	CC(C)C[C@H](NC(=O)[C@@H](NC(=O)CNC(=O)c1ccccc1)C(C)C)C(=O)N[C@@H](CCCCNC(=O)C[C@H](Sc1cccc(Cl)c1Cl)C(=O)O)C(=O)N[C@@H](CCC(=O)O)C(=O)N[C@@H](Cc1ccc(O)cc1)C(=O)NCC(=O)N[C@H](C(N)=O)C(C)C (Bz-GVLK(X31)EYGV-NH2)
803	CC(C)C[C@H](NC(=O)[C@@H](NC(=O)CNC(=O)c1ccccc1)C(C)C)C(=O)N[C@@H](CCCCNC(=O)C[C@H](SCc1ccc(C(F)(F)F)cc1)C(=O)O)C(=O)N[C@@H](CCC(=O)O)C(=O)N[C@@H](Cc1ccc(O)cc1)C(=O)NCC(=O)N[C@H](C(N)=O)C(C)C (Bz-GVLK(X32)EYGV-NH2)
46.1	Cc1ccc(S[C@@H](CC(=O)NCCCC[C@H](NC(=O)[C@H](CC(C)C)NC(=O)[C@@H](NC(=O)CNC(=O)c2ccccc2)C(C)C)C(=O)N[C@@H](CCC(=O)O)C(=O)N[C@@H](Cc2ccc(O)cc2)C(=O)NCC(=O)N[C@H](C(N)=O)C(C)C)C(=O)O)cc1C (Bz-GVLK(X33)EYGV-NH2)
3100	CC(C)C[C@H](NC(=O)[C@@H](NC(=O)CNC(=O)c1ccccc1)C(C)C)C(=O)N[C@@H](CCCCNC(=O)C[C@@H](Sc1ccccc1Cl)C(=O)O)C(=O)N[C@@H](CCC(=O)O)C(=O)N[C@@H](Cc1ccc(O)cc1)C(=O)NCC(=O)N[C@H](C(N)=O)C(C)C (Bz-GVLK(X34)EYGV-NH2)
2200	CC(C)C[C@H](NC(=O)[C@@H](NC(=O)CNC(=O)c1ccccc1)C(C)C)C(=O)N[C@@H](CCCCNC(=O)C[C@@H](SCc1ccc(C(F)(F)F)cc1)C(=O)O)C(=O)N[C@@H](CCC(=O)O)C(=O)N[C@@H](Cc1ccc(O)cc1)C(=O)NCC(=O)N[C@H](C(N)=O)C(C)C (Bz-GVLK(X35)EYGV-NH2)
1180	CC(C)C[C@H](NC(=O)[C@@H](NC(=O)CNC(=O)c1ccccc1)C(C)C)C(=O)N[C@@H](CCCCNC(=O)C[C@@H](Sc1ccc2ccccc2c1)C(=O)O)C(=O)N[C@@H](CCC(=O)O)C(=O)N[C@@H](Cc1ccc(O)cc1)C(=O)NCC(=O)N[C@H](C(N)=O)C(C)C (Bz-GVLK(X36)EYGV-NH2)
1130	CC(C)C[C@H](NC(=O)[C@@H](NC(=O)CNC(=O)c1ccccc1)C(C)C)C(=O)N[C@@H](CCCCNC(=O)C[C@H](SCCCc1ccccc1)C(=O)O)C(=O)N[C@@H](CCC(=O)O)C(=O)N[C@@H](Cc1ccc(O)cc1)C(=O)NCC(=O)N[C@H](C(N)=O)C(C)C (Bz-GVLK(X37)EYGV-NH2)
95	CC(C)C[C@H](NC(=O)[C@@H](NC(=O)CNC(=O)c1ccccc1)C(C)C)C(=O)N[C@@H](CCCCNC(=O)C[C@H](Sc1cccc2ccccc12)C(=O)O)C(=O)N[C@@H](CCC(=O)O)C(=O)N[C@@H](Cc1ccc(O)cc1)C(=O)NCC(=O)N[C@H](C(N)=O)C(C)C (Bz-GVLK(X38)EYGV-NH2)
86.1	CC(C)C[C@H](NC(=O)[C@@H](NC(=O)CNC(=O)c1ccccc1)C(C)C)C(=O)N[C@@H](CCCCNC(=O)C[C@H](Sc1cc(Cl)cc(Cl)c1)C(=O)O)C(=O)N[C@@H](CCC(=O)O)C(=O)N[C@@H](Cc1ccc(O)cc1)C(=O)NCC(=O)N[C@H](C(N)=O)C(C)C (Bz-GVLK(X39)EYGV-NH2)
336	CC(C)C[C@H](NC(=O)[C@@H](NC(=O)CNC(=O)c1ccccc1)C(C)C)C(=O)N[C@@H](CCCCNC(=O)C[C@H](SCc1ccccc1)C(=O)O)C(=O)N[C@@H](CCC(=O)O)C(=O)N[C@@H](Cc1ccc(O)cc1)C(=O)NCC(=O)N[C@H](C(N)=O)C(C)C (Bz-GVLK(X40)EYGV-NH2)
1980	CC(C)C[C@H](NC(=O)[C@@H](NC(=O)CNC(=O)c1ccccc1)C(C)C)C(=O)N[C@@H](CCCCNC(=O)C[C@@H](Sc1cc(Cl)ccc1Cl)C(=O)O)C(=O)N[C@@H](CCC(=O)O)C(=O)N[C@@H](Cc1ccc(O)cc1)C(=O)NCC(=O)N[C@H](C(N)=O)C(C)C (Bz-GVLK(X41)EYGV-NH2)
> 40000	CC(C)C[C@H](NC(=O)[C@@H](NC(=O)CNC(=O)c1ccccc1)C(C)C)C(=O)N[C@@H](CCCCNC(=O)CCSc1ccc2ccccc2c1)C(=O)N[C@@H](CCC(=O)O)C(=O)N[C@@H](Cc1ccc(O)cc1)C(=O)NCC(=O)N[C@H](C(N)=O)C(C)C (Bz-GVLK(X42)EYGV-NH2)
177	CC(C)C[C@H](NC(=O)[C@@H](NC(=O)CNC(=O)c1ccccc1)C(C)C)C(=O)N[C@@H](CCCCNC(=O)C[C@H](Sc1ccc(Cl)cc1Cl)C(=O)O)C(=O)N[C@@H](CCC(=O)O)C(=O)N[C@@H](Cc1ccc(O)cc1)C(=O)NCC(=O)N[C@H](C(N)=O)C(C)C (Bz-GVLK(X43)EYGV-NH2)
> 40000	CC(C)C[C@H](NC(=O)[C@@H](NC(=O)CNC(=O)c1ccccc1)C(C)C)C(=O)N[C@@H](CCCCNC(=O)CC(C)Sc1ccc2ccccc2c1)C(=O)N[C@@H](CCC(=O)O)C(=O)N[C@@H](Cc1ccc(O)cc1)C(=O)NCC(=O)N[C@H](C(N)=O)C(C)C (some centres not stated) (Bz-GVLK(X44)EYGV-NH2)
> 4000	CC(C)C[C@H](NC(=O)[C@@H](NC(=O)CNC(=O)c1ccccc1)C(C)C)C(=O)N[C@@H](CCCCNC(=O)C[C@H](SC1CCCCC1)C(=O)O)C(=O)N[C@@H](CCC(=O)O)C(=O)N[C@@H](Cc1ccc(O)cc1)C(=O)NCC(=O)N[C@H](C(N)=O)C(C)C (Bz-GVLK(X45)EYGV-NH2)
